Consider one compound from EPA's ToxValDB 9.5 (doi:10.2903/j.efsa.2008.122r).

Values after ≈ are worked out from the molar mass of the structure shown.

Series [1] relates to Aphidius rhopalosiphi. The note with it: not reported.
In series [2] the test system is Apis mellifera. The note with it: acute; duration: 48 hours; dermal; mortality.
For series [3], the system named is Bird.
Series [4] concerns Daphnia magna. As to conditions: chronic/long-term; duration: 21 days.
The subject of series [5] is Oncorhynchus mykiss. As to conditions: chronic/long-term; duration: 35 days; growth.
The subject of series [6] is Rattus norvegicus. As to conditions: for NOAEL: body weight.
Series [7] concerns Tagia sp.
Series [8] deals with Cyprinus carpio. The note with it: acute; duration: 96 hours; mortality.

For orientation: NOAEL means the highest tested level that showed no adverse finding. Regarding `O=C(Nc1ccc(F)cc1F)c1cccnc1Oc1cccc(C(F)(F)F)c1` [Diflufenican], the LEL in series [1] (mortality) and in series [1] (reproduction) was 188 g/ha throughout. Further, the LD50 was > 100 µg/piece in series [2]; > 2150 mg/kg in series [3] (acute, oral, unspecified, mortality); > 5000 mg/kg in series [6] (acute, oral, mortality). Besides, the NOEC in series [3] (reproductive) was found to be 91.8 mg/kg; in series [4], 0.052 mg/L; in series [5] it was 0.015 mg/L; in series [7] (chronic/long-term, reproduction) it was 1000 mg/kg. The no-observed-adverse-effect level (NOAEL) in series [6] (chronic, duration: 2 years) is 23.3 mg/kg-day; in series [6] (reproduction developmental, M) it was 35.5 mg/kg-day; in series [6] (subchronic, duration: 13 weeks, oral), 19.5 mg/kg-day. In addition, the LC50 in series [7] (acute, duration: 14 days, mortality) is > 1000 mg/kg; in series [8] it was 0.0985 µg/mL (≈ 0.25 µM).
